Reference: patent US11612652B2, “Lipids as synthetic vectors to enhance antigen processing and presentation ex-vivo in dendritic cell therapy” (PDS Biotechnology Corporation, priority 2015, dated 2023)

Assays:
popliteal lymph nodes = experiment: Influx of T-cells and total lymphocytes into draining lymph nodes after foot pad injection; type: in vivo, mice
Method: 12 mM R-DOTAP or sucrose as control were injected into the right and eft foot pad respectively of mice and the influx of T-cells and total lymphocytes into the draining lymph nodes were quantified by flow cytometry. In this experiment, 15 hours after vaccination the popliteal lymph nodes were removed and analysis performed. […] Five mice were used per study.

TC-1 tumors = experiment: Established TC-1 tumor model: tumor microenvironment, tumor volume, ELISPOT; type: in vivo, C57 mice; settings: Day 19 flow cytometry
Method: C57 mice were divided into the following groups of 8 mice per group: R-DOTAP+HPV16 E7 peptide KF18 ([…]) (SEQ ID NO: 4) , GM-CSF+HPV16 E7 peptide KF18, R-DOTAP, GM-C SF, HPV16 E7 peptide KF18, untreated. 1×10^5 TC-1 tumor cells were injected into the flank of the mice on day 0. The various formulations were administered on Days 12 and 19 after tumor implantation. On day 19 4-5 mice per group were sacrificed and a number of evaluations performed to evaluate the immunology of the tumor microenvironment.
RF9 specific dextramer staining and flow cytometry were utilized to quantify the number of HPV-specific CD8+ T-cells that had infiltrated into the tumor micro-environment. The study quantified the number of CD8+ T cells specific to the mouse epitope RF9. These CD8+ T cells were measured as a percentage of all immune cells (CD45, CD3 and CD8) present in the tumor. Antigen specific T cells infiltrating into the tumor were measured using RF9 specific dextramers by flow cytometry. […] Data represents mean±SEM of 4-5 mice in each group.
On Day 19 flow cytometry was used to study the immuno-suppressive tumor microenvironment, specifically the regulatory T cell population. T regulatory cells (CD45+CD3+CD4+CD25+Foxp3+) cells infiltrated into tumors on day 14 and day 19.
Of critical importance to the clinical efficacy of any immunotherapy is the ratio of immune suppressive cells to tumor targeting CD8+ T cells within the tumor microenvironment. A lower ratio of immune suppressor cells to CD8+ T cells promotes improved prognosis for anti-tumor benefit. […] Cationic lipids appear to promote the preferential expansion of the right phenotype of effector T-cells in preference to Tregs.
The various formulations were evaluated for their impact on the established TC-1 tumors in the same study. […] Tumor volumes were measured using calipers. The naïve mice group are tumor bearing mice that remained untreated. The HPV16 E7 peptide used in the vaccine is KF18. […]
In this study, IFN-γ ELISPOT studies were also performed to quantify and understand the “quality” of tumor-specific T-cell generated. […]

[1] = system: HPV16-specific CD8+ T-cells; experiment: IFN-gamma ELISPOT of splenocytes after vaccination with KF18 HPV peptide formulations; type: in vivo, C57 black mice; settings: vaccinated Day 0 and Day 7, sacrificed Day 14
Method: C57 black mice were vaccinated with various formulations: […]
Group 1: KF18 HPV peptide ([…]) (SEQ ID NO: 4)
Group 2: KF18 HPV peptide+R-DOTAP liposomes
Group 3: KF18 HPV peptide+S-DOTAP liposomes
Group 4: KF18 peptide+MPL/Alum adjuvant
5 mice per group were injected with the various formulations. The mice were vaccinated on Day 0 and Day 7 and sacrificed on Day 14. The splenocytes were removed and ELISPOT studies performed. The splenocytes were stimulated with the peptide […] (RF9) (SEQ ID NO: 5), the HPV16 CD8+ T-cell epitope peptide recognized by the C57 mice. […] An additional example of this effect is observed with the cationic lipid DDA. […] However, it has been reported that in order to induce strong antigen-specific T-cell responses that DDA is used in combination with strong adjuvants (Brandt L. et al, ESAT-6 Subunit Vaccination against Mycobacterium tuberculosis, Infect Immun. 2000 February; 68(2): 791-795).

THP-1 cells = experiment: DQ-OVA uptake in human monocyte cell line, confocal microscopy and flow cytometry; type: cell-based; settings: DQ-OVA 10 μg/ml, R-DOTAP 25 μg/ml, 1 h at 37° C.
Method: To determine the effect of cationic lipids on human cells, a human monocyte cell line, THP-1 was used to assess DQ-OVA uptake ex-vivo. THP-1 is representative of human blood derived monocyte cells, the same cells that are used to produce DC from patients in ex vivo DC therapy approaches. THP-1 cells were incubated with DQ-OVA (10 μg/ml) in the presence (A, B) or absence (C, D) of R-DOTAP (25 μg/ml) for 1 h at 37° C. The same cell was imaged using a laser scanning confocal microscope and quantitated by measuring green versus red fluorescence by flow cytometry. […] Another striking observation from FIGS. 6A and B, is the accumulation of processed OVA in endocytic vesicles. It is well known that proteins in endocytic vesicles are efficiently incorporated into MHC class II molecules for stimulating CD4 T cells or shuttled into the cross-presentation pathway for presentation on MHC class I to CD8 T cells. Thus, cationic lipids facilitate protein uptake in a manner which maximally optimizes presentation of antigen onto both MHC class I and class II molecules, resulting in maximal stimulation of CD8 and CD4 T cells respectively.

## CCCCCCCC/C=C\CCCCCCCC(=O)OCC(C[N+](C)(C)C)OC(=O)CCCCCCC/C=C\CCCCCCCC (centres unmarked) [R-DOTAP, 1,2-dioleoyl-3-trimethylammonium propane]
Popliteal lymph nodes; 12 mM R-DOTAP in foot pad, 15 hours after vaccination, versus sucrose
  infiltration of T-cells into the draining lymph node: induced significant infiltration of T-cells into the lymph node
Popliteal lymph nodes; 5 hours, 16 hours, 3 days and 4 days
  lymphocyte infiltration into the lymph nodes over time: lymphocyte infiltration into the lymph nodes was seen to increase over the 4-day period
TC-1 tumors
  ability to reduce the population of Tregs in tumors: statistical significance was not achieved
[1]
  HPV-specific CD8+ T-cell response (ELISPOT, RF9 stimulation): effective in inducing strong HPV-specific CD8+ T-cell responses
THP-1 cells
  DQ-OVA uptake in THP-1 cells: dramatically enhanced the uptake of DQ-OVA in THP-1 cells
